Assay results taken from paper PMC8113459, “Selective inhibition of cullin 3 neddylation through covalent targeting DCN1 protects mice from acetaminophen-induced liver toxicity” (Nature Communications, 2021).
Several values for one entry are separate records, joined by “and”; a condition that tells them apart may be missing. Equal values may be shown once.

Experiments:
[1] = test system: HO-1 mRNA; assay: RT-PCR, HO-1 mRNA in THLE2 cells; assay type: cell-based, human; details: for HO-1 mRNA level relative to control: THLE2, 10 nM, replicates
Description: Supplementary Figure 23. DI‐1859 increases the mRNA level of NRF2 ta rge te d genes NQO1 and
HO‐1. THLE2 cells we re treated with DI‐1859 at 10 nM fo r 4, 8 and 24 h. Tr e a t e d cells were
harvested and the mRNA level of HO‐1 and NQO1 we re exa m i n e d by RT‐PCR assay. The probes
Scientific (Ann Arbor, MI). Data are presented as mean values with n = 2 independent biological […]

[2] = test system: mice; assay: 14-day toxicity study in mice; assay type: in vivo, mouse; details: for whole animal: body weight of individual male mouse; for whole animal / AdrenalGlands / Brain / Epidimydes (paired) / Heart / KidneyL / KidneyR / Liver / Spleen / Testes (paired) / Thymus: in g (unit assumed); for AdrenalGlands / Brain / Epidimydes (paired) / Heart / KidneyL / KidneyR / Liver / Spleen / Testes (paired) / Thymus: organ weight of individual male mouse; for RelGonads / Relative KidneyL / RelativeHeart / RelativeKidneyR / RelativeLiver / RelativeSpleen / RelativeThymus / RelAdrenGl / RelBrain / RelEpid: organ weight relative to whole animal; for RelAdrenGl / RelBrain / RelEpid: in % (unit assumed)
Description: We evaluated DI-1859 for its potential toxicity in immunocompetent mice with daily, 50 mg/kg, intraperitoneal (IP) dosing for 14 consecutive days (Supplementary Table 3).
Supplementary Table 3. Overview Toxicity Study design DI-1859 study.
Group # # of Mice Drug Vol./ Test Article Treatment Diluent
(male/female) Route mouse dose Schedule

[3] = Clin Chem, individual male mouse, 50 mg/kg, 14 day, vehicle 20% PCP, listed as DI-1589, 50 mg/kg, in U/L (unit assumed)
[4] = Hemavet Values, individual male mouse, 50 mg/kg, 14 day, vehicle 20% PCP, listed as DI-1589, 50 mg/kg
[5] = 50 mg/kg, 14 day, vehicle 20% PCP
[6] = 50 mg/kg, 14 day, vehicle 20% PCP, listed as DI-1589, 50 mg/kg
[7] = mice, 50 mg/kg IP daily for 14 days
[8] = mice, 50 mg/kg IP qD(1-14), mean ± s.d., n=5
[9] = individual male mouse, 50 mg/kg, 14 day
[10] = individual male mouse, 50 mg/kg, 14 day, listed as DI-1589, 50 mg/kg
[11] = serum, mice, 50 mg/kg IP qD(1-14), mean ± s.d., n=5

## C=C(CN(C)C)C(=O)NC[C@@H](NC(=O)[C@H](Cc1nc2ccc(C(C)C)cc2s1)NC(=O)CC)C1CCCCC1 [DI-1859]
[1]; 4 h (time from row order and b199)
  HO-1 mRNA level relative to control: 1.5 and 1.6
[1]; 8 h (time from row order and b199)
  HO-1 mRNA level relative to control: 1.7 and 1.9
[1]; 24 h (time from row order and b199)
  HO-1 mRNA level relative to control: 2.4 and 3.9
[1]; THLE2 liver cells, qRT-PCR
  increase of HO1 mRNA level: 3 folds
[2]; 50 mg/kg IP qD(1-14), Treat Day 2
  % wt change (average): -3.1%
[2]; 50 mg/kg IP qD(1-14), Treat Day 3
  % wt change (average): -3.0%
[2]; 50 mg/kg IP qD(1-14), Treat Day 3, n=5
  ave. wgt. (mouse body weight): 25.5 gm
[2]; 50 mg/kg IP qD(1-14), Treat Day 4
  % wt change (average): -3.1%
[2]; 50 mg/kg IP qD(1-14), Treat Day 4, n=5
  ave. wgt. (mouse body weight): 25.5 gm
[2]; 50 mg/kg IP qD(1-14), Treat Day 5
  % wt change (average): -0.9%
[2]; 50 mg/kg IP qD(1-14), Treat Day 5, n=5
  ave. wgt. (mouse body weight): 26.0 gm
[2]; 50 mg/kg IP qD(1-14), Treat Day 6
  % wt change (average): -1.3%
[2]; 50 mg/kg IP qD(1-14), Treat Day 6, n=5
  ave. wgt. (mouse body weight): 25.9 gm
[2]; 50 mg/kg IP qD(1-14), Treat Day 7
  % wt change (average): -1.6%
[2]; 50 mg/kg IP qD(1-14), Treat Day 7, n=5
  ave. wgt. (mouse body weight): 25.8 gm
[2]; 50 mg/kg IP qD(1-14), Treat Day 8
  % wt change (average): -2.1%
[2]; 50 mg/kg IP qD(1-14), Treat Day 8, n=5
  ave. wgt. (mouse body weight): 25.7 gm
[2]; 50 mg/kg IP qD(1-14), Treat Day 9
  % wt change (average): -1.9%
[2]; 50 mg/kg IP qD(1-14), Treat Day 9, n=5
  ave. wgt. (mouse body weight): 25.8 gm
[2]; 50 mg/kg IP qD(1-14), Treat Day 10
  % wt change (average): -0.8%
[2]; 50 mg/kg IP qD(1-14), Treat Day 10, n=5
  ave. wgt. (mouse body weight): 26.0 gm
[2]; 50 mg/kg IP qD(1-14), Treat Day 11
  % wt change (average): -3.6%
[2]; 50 mg/kg IP qD(1-14), Treat Day 11, n=5
  ave. wgt. (mouse body weight): 25.3 gm
[2]; 50 mg/kg IP qD(1-14), Treat Day 12
  % wt change (average): -2.5%
[2]; 50 mg/kg IP qD(1-14), Treat Day 12, n=5
  ave. wgt. (mouse body weight): 25.6 gm
[2]; 50 mg/kg IP qD(1-14), Treat Day 13
  % wt change (average): -2.7%
[2]; 50 mg/kg IP qD(1-14), Treat Day 13, n=5
  ave. wgt. (mouse body weight): 25.6 gm
[2]; 50 mg/kg IP qD(1-14), Treat Day 14
  % wt change (average): -4.9%
[2]; 50 mg/kg IP qD(1-14), Treat Day 14, n=5
  ave. wgt. (mouse body weight): 25.0 gm
[2]; [3]
  ALT: 34 and 26 and 24 and 31
  AST: 57 and 46 and 61 and 55 and 35
[2]; Hemavet Values, individual male mouse, 50 mg/kg, 14 day, vehicle 20% PCP
  PDW: 0%
[2]; [4]
  BA#: 0.01 K/uL and 0.09 K/uL and 0.05 K/uL and 0.13 K/uL
  BA%: 0.11% and 0.74% and 1.42% and 0.22% and 1.34%
  EO#: 0.05 K/uL and 0.22 K/uL and 0.08 K/uL and 0.02 K/uL and 0.52 K/uL
  EO%: 0.65% and 1.86% and 2.37% and 0.68% and 5.39%
  HB: 12.9 g/dL and 12.5 g/dL and 10.2 g/dL and 11.4 g/dL and 11.5 g/dL
  HCT: 37.7% and 38.6% and 31.1% and 36.4% and 34.1%
  LY#: 5.23 K/uL and 7.93 K/uL and 2.4 K/uL and 1.63 K/uL and 5.65 K/uL
  LY%: 69.39% and 68.59% and 72.26% and 71.36% and 58.57%
  MCH: 14.5 pg and 13.7 pg and 14.3 pg
  MCHC: 34.2 g/dL and 32.4 g/dL and 32.8 g/dL and 31.3 g/dL and 33.7 g/dL
  MCV: 42.5 fL and 42.4 fL and 41.9 fL and 43.7 fL
  MO#: 0.42 K/uL and 0.63 K/uL and 0.21 K/uL and 0.22 K/uL
  MO%: 5.58% and 5.49% and 6.31% and 9.5% and 6.52%
  MPV: 4.9 fL and 4.7 fL and 5.2 fL and 5.7 fL and 4.8 fL
  NE#: 1.83 K/uL and 2.69 K/uL and 0.59 K/uL and 0.42 K/uL and 2.72 K/uL
  NE%: 24.26% and 23.31% and 17.63% and 18.24% and 28.19%
  PLT: 900 K/uL and 866 K/uL and 228 K/uL and 177 K/uL and 757 K/uL
  RBC: 8.88 M/uL and 9.11 M/uL and 7.43 M/uL and 8.33 M/uL and 8.03 M/uL
  RDW: 17.1% and 16.5% and 17.2% and 17.7%
  WBC: 7.54 K/uL and 11.56 K/uL and 3.32 K/uL and 2.28 K/uL and 9.64 K/uL
[2]; [5]
  whole animal: 24.600
  AdrenalGlands: 0.007
  Brain: 0.448
  Epidimydes (paired): 0.106
  Heart: 0.104
  KidneyL: 0.187
  KidneyR: 0.192
  Liver: 1.500
  Spleen: 0.075
  Testes (paired): 0.230
  Thymus: 0.025
[2]; [6]
  whole animal: 25.300 and 25.200 and 26.400 and 27.400
  AdrenalGlands: 0.005 and 0.010
  Brain: 0.465 and 0.450 and 0.445 and 0.462
  Epidimydes (paired): 0.091 and 0.076 and 0.086 and 0.084
  Heart: 0.120 and 0.111 and 0.127 and 0.122
  KidneyL: 0.188 and 0.165 and 0.173 and 0.199
  KidneyR: 0.201 and 0.208 and 0.193 and 0.207
  Liver: 1.540 and 1.722 and 1.680
  Spleen: 0.063 and 0.074 and 0.062 and 0.093
  Testes (paired): 0.224 and 0.227 and 0.237 and 0.193
  Thymus: 0.088 and 0.032 and 0.029 and 0.028
[2]; [7]
  alterations in hematologic parameters: no meaningful alterations
  changes in body weights or organ weights: no changes
  tolerability: well tolerated
[2]; [8]
  Absolute organ weight, Adrenal glands (paired): 0.006 ± 0.002 g
  Absolute organ weight, Brain: 0.454 ± 0.009 g
  Absolute organ weight, Epididymis (paired): 0.089 ± 0.011 g
  Absolute organ weight, Heart: 0.117 ± 0.009 g
  Absolute organ weight, L kidney: 0.182 ± 0.013 g
  Absolute organ weight, Liver: 1.596 ± 0.098 g
  Absolute organ weight, R kidney: 0.200 ± 0.007 g
  Absolute organ weight, Spleen: 0.073 ± 0.013 g
  Absolute organ weight, Testes (paired): 0.222 ± 0.017 g
  Absolute organ weight, Thymus: 0.040 ± 0.027 g
  Body weights: 25.78 ± 1.11 g
  Hematocrit: 35.58 ± 3.02%
  Hemoglobin: 11.70 ± 1.06 g/dL
  MCH: 13.98 ± 0.39 pg
  MCHC: 32.88 ± 1.13 g/dL
  MCV: 42.60 ± 0.66 fL
  MPV: 5.06 ± 0.40 fL
  Platelets: 585.6 ± 354.1 10e3/uL
  RBC: 8.36 ± 0.67 10e6/ul
  RDW: 17.12 ± 0.43%
  Relative organ weight, Adrenal glands (paired): 0.02 ± 0.01 % of body weight
  Relative organ weight, Brain: 1.76 ± 0.07 % of body weight
  Relative organ weight, Epididymis (paired): 0.35 ± 0.05 % of body weight
  Relative organ weight, Heart: 0.45 ± 0.02 % of body weight
  Relative organ weight, L kidney: 0.71 ± 0.05 % of body weight
  Relative organ weight, Liver: 6.19 ± 0.19 % of body weight
  Relative organ weight, R kidney: 0.78 ± 0.04 % of body weight
  Relative organ weight, Spleen: 0.28 ± 0.04 % of body weight
  Relative organ weight, Testes (paired): 0.86 ± 0.09 % of body weight
  Relative organ weight, Thymus: 0.16 ± 0.11 % of body weight
  WBC: 6.868 ± 3.993 10e3/ul
[2]; mice, 50 mg/kg IP, 14 days
  Microscopic finding, Epididymis: Sperm granuloma: 0/10
  Microscopic finding, Liver: Necrosis, random: 0/5
  Microscopic findings, Adrenal Glands: 0/8
  Microscopic findings, Cecum: 0/5
  Microscopic findings, Colon: 0/5
  Microscopic findings, Heart: 0/5
  Microscopic findings, Kidneys: 0/10
  Microscopic findings, Lung: 0/5
  Microscopic findings, Mesenteric lymph node: 0/5
  Microscopic findings, Pancreas: 0/5
  Microscopic findings, Small intestine: 0/5
  Microscopic findings, Spleen: 0/5
  Microscopic findings, Sternal bone marrow: 0/5
  Microscopic findings, Stomach: 0/5
  Microscopic findings, Thymus: 0/5
  Microscopic findings, Urinary bladder: 0/5
[2]; [9]
  RelGonads: 0.935
  Relative KidneyL: 0.760
  RelativeHeart: 0.423
  RelativeKidneyR: 0.780
  RelativeLiver: 6.098
  RelativeSpleen: 0.305
  RelativeThymus: 0.102
  RelAdrenGl: 0.028
  RelBrain: 1.821
  RelEpid: 0.431
[2]; [10]
  RelGonads: 0.885 and 0.901 and 0.898 and 0.704
  Relative KidneyL: 0.743 and 0.655 and 0.726
  RelativeHeart: 0.474 and 0.440 and 0.481 and 0.445
  RelativeKidneyR: 0.794 and 0.825 and 0.731 and 0.755
  RelativeLiver: 6.087 and 6.111 and 6.523 and 6.131
  RelativeSpleen: 0.249 and 0.294 and 0.235 and 0.339
  RelativeThymus: 0.348 and 0.127 and 0.110
  RelAdrenGl: 0.020 and 0.019 and 0.037
  RelBrain: 1.838 and 1.786 and 1.686
  RelEpid: 0.360 and 0.302 and 0.326 and 0.307
[2]; [11]
  ALT: 28.2 ± 4.1 U/L
  AST: 50.8 ± 10.4 U/L
